# Key:
# PBP2 = target: T1, PBP2 (Pseudomonas aeruginosa, UniProt Q9X6V3); assay: PBP-binding affinity (IC50), bocillin FL, isolated membranes; parameters: species or system P. aeruginosa PAO1; details: PAO1 membranes 0.5 mg/mL, 30 min, 25 µM bocillin FL; read-out: Mean IC50 ± SD, PBP 2 (converted)
# T1 construct: PBP-containing membranes were isolated by ultracentrifugation; endogenous in cells; host or cells: P. aeruginosa PAO1 wild type (membrane preparations or intact cells)
# Description: (§1) PBP-binding affinity was determined using previously described methods. Briefly, P. aeruginosa PAO1 cultures grown to the midexponential phase (7.6 log10 CFU/mL) were incubated in CAMHB at 37 °C and 180 rpm, washed and centrifuged (3220× g for 10 min at 4 °C). Bacterial pellets were washed in 30 mL of PBS buffer (pH 7.5), resuspended in 10 mL of PBS and sonicated at 40% amplitude for three 2 min bursts (while immersed in an ice bath) and centrifuged at 3220× g for 15 min at 4 °C. PBP-containing membranes were isolated by ultracentrifugation at 150,000× g for 30 min at 4 °C. Total protein concentrations were measured through the Bradford method.
# (§2) Subsequently, the fluorescent penicillin bocillin FL was added to a 25 μM final concentration. Labeled PBPs were denatured and separated through 4–15% SDS–polyacrylamide gel electrophoresis. Labeled PBPs were visualized using a Typhoon FLA 9500 biomolecular imager (GE Healthcare Bio-Sciences AB, Uppsala, Sweden) (excitation at 488 nm and emission at 530 nm), and binding was determined from at least three independent experiments using ImageQuant TL software v8.1.0.0 (GE Healthcare Bio-Sciences AB, Uppsala, Sweden).
# PBP4 [1] = target: T2, PBP4 (Pseudomonas aeruginosa, UniProt Q9HZG1); assay: as above; parameters: species or system P. aeruginosa PAO1; details: PAO1 membranes 0.5 mg/mL, 30 min, 25 µM bocillin FL; read-out: Mean IC50 ± SD, PBP 4 (converted)
# Description: as §1, §2
# PBP1b = PBP1b (Pseudomonas aeruginosa, UniProt G3XD31); assay: as above; parameters: species or system P. aeruginosa PAO1; details: PAO1 membranes 0.5 mg/mL, 30 min, 25 µM bocillin FL; read-out: Mean IC50 ± SD, PBP 1b (converted)
# Description: as §1, §2
# PBP1a = target: T3, PBP1a (Pseudomonas aeruginosa, UniProt Q07806); assay: as above; parameters: species or system P. aeruginosa PAO1; details: PAO1 membranes 0.5 mg/mL, 30 min, 25 µM bocillin FL
# T3 construct: PBP-containing membranes were isolated by ultracentrifugation; endogenous in cells; host or cells: P. aeruginosa PAO1 wild type (membrane preparations or intact cells)
# Description: as §1, §2
# PBP5/6 [2] = target: T4, PBP5/6 (Pseudomonas aeruginosa, UniProt G3XD74); assay: as above; parameters: species or system P. aeruginosa PAO1; details: PAO1 membranes 0.5 mg/mL, 30 min, 25 µM bocillin FL; read-out: Mean IC50 ± SD, PBP 5/6 (converted)
# Description: as §1, §2
# [3] = tested on: ampC mRNA in wild-type PAO1; assay: qRT-PCR quantification of AmpC induction; assay type: cell-based, P. aeruginosa; details: IPM 8, FOX 64, AVI 16 µg/mL, relative to strain basal t=0
# Description: (§3) Samples were taken at 0, 30 and 180 min. Total RNA was extracted with the RNeasy Mini Kit (Qiagen, Hilden, Germany) and treated with TURBO DNase (Thermo Fisher Scientific, Waltham, MA, USA) to remove contaminating DNA. Samples were afterwards normalized to 50 ng/µL.
# (§4) Normalized samples were then used for one-step reverse transcription and real-time PCR amplification using the QuantiTect SYBR green qRT-PCR kit (Qiagen, Hilden, Germany) in a CFX Connect Real-Time PCR System (Bio-Rad, Hercules, California, USA). Previously described primer pairs ACrnaF/ACrnaR and rpsL-1/rpsL-2 were used for the amplification of ampC and housekeeping gene rpsL, respectively. The mean values of relative mRNA expression (2^−ΔΔCt) obtained from at least two independent biological replicates and duplicate technical replicates were considered.
# [4] = tested on: ampC mRNA in 103-H8 (AmpC E247K; PDC-221, CAZ/AVI-resistant ST175 clinical isolate); assay: qRT-PCR quantification of AmpC induction; assay type: cell-based, P. aeruginosa; details: IPM 8, FOX 64, AVI 16 µg/mL, relative to strain basal t=0
# Description: as §3, §4
# [5] = tested on: ampC mRNA in 110-G8 (AmpC DelG229–E247; PDC-223, CAZ/AVI-resistant ST175 clinical isolate); assay: qRT-PCR quantification of AmpC induction; assay type: cell-based, P. aeruginosa; details: IPM 8, FOX 64, AVI 16 µg/mL, relative to strain basal t=0
# Description: as §3, §4
# [6] = tested on: ampC mRNA in 101-E5 (CAZ/AVI-sensitive ST175 clinical isolate); assay: qRT-PCR quantification of AmpC induction; assay type: cell-based, P. aeruginosa; details: IPM 8, FOX 64, AVI 16 µg/mL, relative to strain basal t=0
# Description: as §3, §4
# [7] = tested on: ampC mRNA in 109-E9 (CAZ/AVI-sensitive ST175 clinical isolate); assay: qRT-PCR quantification of AmpC induction; assay type: cell-based, P. aeruginosa; details: IPM 8, FOX 64, AVI 16 µg/mL, relative to strain basal t=0
# Description: as §3, §4
# PBP4 [8] = target: T2, PBP4; assay: Isolated PBP-containing membranes time-course binding assay; parameters: species or system P. aeruginosa PAO1; details: isolated PAO1 membranes, 4 µg/mL avibactam, 15-60 min; read-out: PBP4 total fraction bound
# Description: (§5) Figure 2 Time-course of intact cells and isolated PBP-binding assay. P. aeruginosa PAO1 cultures (a) and isolated PBP-containing membrane preparations (b) were incubated for 15, 30 and 60 min in the presence of 4 µg/mL avibactam (AVI). After isolating PBP-containing membranes, preparations were labeled with 25 µM bocillin FL. The graphs represent the PBP fraction unbound relative to each time control over time. The mean PBP fraction unbound values from at least three independent experiments ± standard deviations are shown.
# (§6) In parallel to the aforementioned assay, we performed analogous experiments in which isolated PBP-containing membrane preparations instead of intact cells were pre-exposed to avibactam. Briefly, membrane preparations containing PBPs were obtained by following previously described protocols and were incubated for 15, 30 and 60 min at 37 °C in the presence of 4 µg/mL avibactam and were afterwards labeled with bocillin FL (25 μM). Determination of the PBP fraction unbound was performed as described in the above section.
# PBP5/6 [9] = target: T4, PBP5/6; assay: as above; parameters: species or system P. aeruginosa PAO1; details: isolated PAO1 membranes, 4 µg/mL avibactam, 15-60 min; read-out: PBP5/6 total fraction bound
# Description: as §5, §6
# T3 sequence (Q07806 whole entry): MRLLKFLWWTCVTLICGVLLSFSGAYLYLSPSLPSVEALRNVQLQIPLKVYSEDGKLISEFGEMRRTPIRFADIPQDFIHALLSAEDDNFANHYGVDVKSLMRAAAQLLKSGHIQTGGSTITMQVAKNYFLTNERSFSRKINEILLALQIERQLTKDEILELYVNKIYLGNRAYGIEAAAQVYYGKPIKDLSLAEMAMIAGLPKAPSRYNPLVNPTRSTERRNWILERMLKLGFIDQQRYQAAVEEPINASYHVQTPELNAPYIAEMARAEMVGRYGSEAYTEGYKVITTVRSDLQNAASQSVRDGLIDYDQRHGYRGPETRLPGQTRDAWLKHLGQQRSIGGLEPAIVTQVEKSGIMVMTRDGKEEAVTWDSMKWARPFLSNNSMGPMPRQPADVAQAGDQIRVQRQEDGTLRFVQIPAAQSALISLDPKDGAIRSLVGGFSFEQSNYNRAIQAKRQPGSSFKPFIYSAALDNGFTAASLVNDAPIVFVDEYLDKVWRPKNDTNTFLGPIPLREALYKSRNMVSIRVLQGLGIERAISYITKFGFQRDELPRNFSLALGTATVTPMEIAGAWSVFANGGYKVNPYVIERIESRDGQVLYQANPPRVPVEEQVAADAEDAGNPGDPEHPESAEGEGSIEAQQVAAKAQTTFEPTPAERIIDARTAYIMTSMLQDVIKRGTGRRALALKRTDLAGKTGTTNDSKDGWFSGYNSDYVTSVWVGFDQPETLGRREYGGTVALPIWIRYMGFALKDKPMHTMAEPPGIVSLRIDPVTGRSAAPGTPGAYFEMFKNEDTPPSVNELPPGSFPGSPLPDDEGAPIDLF
# T2 sequence (Q9HZG1 entry or part of it): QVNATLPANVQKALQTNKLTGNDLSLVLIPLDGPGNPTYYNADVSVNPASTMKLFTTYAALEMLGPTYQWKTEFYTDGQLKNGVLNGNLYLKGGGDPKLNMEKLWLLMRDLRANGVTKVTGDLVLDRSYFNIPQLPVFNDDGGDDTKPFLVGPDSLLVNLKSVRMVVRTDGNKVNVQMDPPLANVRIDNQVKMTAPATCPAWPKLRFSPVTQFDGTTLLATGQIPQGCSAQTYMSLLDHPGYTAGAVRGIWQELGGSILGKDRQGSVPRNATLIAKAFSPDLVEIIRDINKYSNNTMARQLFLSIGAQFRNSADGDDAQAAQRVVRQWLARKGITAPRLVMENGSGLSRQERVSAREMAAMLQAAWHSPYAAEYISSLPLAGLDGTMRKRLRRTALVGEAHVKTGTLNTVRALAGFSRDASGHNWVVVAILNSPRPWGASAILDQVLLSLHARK
# T4 sequence (G3XD74 entry or part of it): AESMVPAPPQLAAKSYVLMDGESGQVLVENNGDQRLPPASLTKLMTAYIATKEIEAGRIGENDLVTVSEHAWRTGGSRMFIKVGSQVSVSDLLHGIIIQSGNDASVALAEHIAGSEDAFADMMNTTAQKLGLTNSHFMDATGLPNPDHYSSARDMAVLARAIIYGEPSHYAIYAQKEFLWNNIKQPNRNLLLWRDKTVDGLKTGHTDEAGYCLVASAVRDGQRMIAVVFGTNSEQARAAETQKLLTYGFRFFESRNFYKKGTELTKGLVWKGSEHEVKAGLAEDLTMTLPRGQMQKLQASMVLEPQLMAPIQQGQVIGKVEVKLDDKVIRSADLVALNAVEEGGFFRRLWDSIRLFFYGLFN
# T1 sequence (Q9X6V3 entry or part of it): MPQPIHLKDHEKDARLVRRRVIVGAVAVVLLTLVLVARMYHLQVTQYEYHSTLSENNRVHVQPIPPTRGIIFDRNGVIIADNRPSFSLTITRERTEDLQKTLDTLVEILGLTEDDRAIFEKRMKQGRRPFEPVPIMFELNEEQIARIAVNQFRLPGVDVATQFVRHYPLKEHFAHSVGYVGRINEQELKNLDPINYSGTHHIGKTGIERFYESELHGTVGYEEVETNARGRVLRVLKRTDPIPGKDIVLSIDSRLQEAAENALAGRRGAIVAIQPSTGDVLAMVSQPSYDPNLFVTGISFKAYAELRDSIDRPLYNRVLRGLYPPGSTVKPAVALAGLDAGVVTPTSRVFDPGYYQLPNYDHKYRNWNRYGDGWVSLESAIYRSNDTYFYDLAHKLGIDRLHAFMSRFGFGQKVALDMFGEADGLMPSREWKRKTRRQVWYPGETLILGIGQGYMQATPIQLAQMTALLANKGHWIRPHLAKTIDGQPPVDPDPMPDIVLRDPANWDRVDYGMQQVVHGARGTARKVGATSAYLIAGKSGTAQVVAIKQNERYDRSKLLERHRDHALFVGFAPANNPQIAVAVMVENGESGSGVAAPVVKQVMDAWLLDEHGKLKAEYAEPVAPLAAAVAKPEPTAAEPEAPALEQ
# PBP1b, sequence (G3XD31 entry or part of it): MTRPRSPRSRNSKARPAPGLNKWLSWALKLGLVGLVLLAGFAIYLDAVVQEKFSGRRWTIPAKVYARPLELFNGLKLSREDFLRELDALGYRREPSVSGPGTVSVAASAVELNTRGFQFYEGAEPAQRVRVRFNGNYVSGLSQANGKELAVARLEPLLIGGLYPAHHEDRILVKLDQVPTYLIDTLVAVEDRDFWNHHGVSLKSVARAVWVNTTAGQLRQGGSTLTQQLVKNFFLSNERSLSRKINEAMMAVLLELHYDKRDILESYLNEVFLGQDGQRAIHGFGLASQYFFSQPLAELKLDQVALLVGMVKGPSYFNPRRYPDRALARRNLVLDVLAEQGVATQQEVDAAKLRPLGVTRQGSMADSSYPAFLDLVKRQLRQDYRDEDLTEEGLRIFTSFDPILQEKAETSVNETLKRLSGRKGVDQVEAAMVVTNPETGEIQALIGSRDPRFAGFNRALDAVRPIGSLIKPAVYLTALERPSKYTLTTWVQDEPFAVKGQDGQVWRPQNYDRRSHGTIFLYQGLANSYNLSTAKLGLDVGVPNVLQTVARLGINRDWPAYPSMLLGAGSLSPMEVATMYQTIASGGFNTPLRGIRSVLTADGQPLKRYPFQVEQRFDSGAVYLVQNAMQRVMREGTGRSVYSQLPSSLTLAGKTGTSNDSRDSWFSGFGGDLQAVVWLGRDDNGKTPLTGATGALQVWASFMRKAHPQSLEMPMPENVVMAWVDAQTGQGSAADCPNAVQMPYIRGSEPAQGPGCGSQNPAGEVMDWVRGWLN
smiles,measurement,setting,value
NC(=O)[C@@H]1CC[C@@H]2CN1C(=O)N2OS(=O)(=O)O [Avibactam],IC50,PBP2,15.8 µM
same,IC50,PBP4 [1],11.7 µM
same,IC50,PBP1b,13.6 µM
same,"Mean IC50 ± SD, PBP 1a",PBP1a,no PBP1a and 3 binding was detected
same,IC50,"PBP1a; read-out: Mean IC50 ± SD, PBP 1a (converted)",> 121 µM
same,IC50,PBP5/6 [2],8.29 µM
same,Relative ampC expression,"[3]; PAO1, 0 min",1.1
same,Relative ampC expression,"[3]; PAO1, 30 min",5.8
same,Relative ampC expression,"[3]; PAO1, 180 min",60.6 ± 25.2
same,Relative ampC expression,"[3]; PAO1, 180 min, listed as AVI",60.6
same,Relative ampC expression,"[4]; 103-H8, 0 min",1.4
same,Relative ampC expression,"[4]; 103-H8, 30 min",2.1
same,Relative ampC expression,"[4]; 103-H8, 180 min",6.9
same,Relative ampC expression,"[5]; 110-G8, 0 min",3.3
same,Relative ampC expression,"[5]; 110-G8, 30 min",2.6
same,Relative ampC expression,"[5]; 110-G8, 180 min",8.7
same,Relative ampC expression,"[6]; 101-E5, 0 min",1.2
same,Relative ampC expression,"[6]; 101-E5, 30 min",0.5
same,Relative ampC expression,"[6]; 101-E5, 180 min",3.1
same,Relative ampC expression,"[7]; 109-E9, 0 min",0.9
same,Relative ampC expression,"[7]; 109-E9, 30 min",1.5
same,Relative ampC expression,"[7]; 109-E9, 180 min",6.2
same,inhibition at 4 µg/mL,PBP4 [8],≤ 68%
same,inhibition at 4 µg/mL,PBP5/6 [9],≤ 82%

# Reference: paper PMC8002452, “Molecular Basis of AmpC β-Lactamase Induction by Avibactam in Pseudomonas aeruginosa: PBP Occupancy, Live Cell Binding Dynamics and Impact on Resistant Clinical Isolates Harboring PDC-X Variants” (International Journal of Molecular Sciences, 2021)
